Assay results reported in ChEMBL document CHEMBL1201862, “PubChem BioAssay data set” (2004).
Blank lines part the entries; values can stand above or below the compound they belong to. Active and inactive are the calls of the source.

Key:
Cytochrome P450 2C9 [1] = target: T1, Cytochrome P450 2C9 (Homo sapiens, UniProt P11712)
Cytochrome P450 3A4 = Cytochrome P450 3A4 (Homo sapiens, UniProt P08684);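 further: CYP3A4 tested as one member of a cytochrome P450 panel screen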
Bcl-2-related protein A1 = target: T2, Bcl-2-related protein A1 (Mus musculus, UniProt Q07440); format: functional;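 further: confirmatory dose–response counterscreen on Bfl-1, used to check hits from a UBC13 polyubiquitin inhibitor campaign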
T2 sequence (Q07440 whole entry): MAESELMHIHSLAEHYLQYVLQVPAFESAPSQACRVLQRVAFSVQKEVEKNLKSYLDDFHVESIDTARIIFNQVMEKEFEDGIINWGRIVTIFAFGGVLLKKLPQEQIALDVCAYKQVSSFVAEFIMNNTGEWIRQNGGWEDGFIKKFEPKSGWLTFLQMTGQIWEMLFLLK

[2] = target: T3, Ubiquitin-conjugating enzyme E2 N (Homo sapiens, UniProt P61088); format: functional
T3 sequence (P61088 whole entry): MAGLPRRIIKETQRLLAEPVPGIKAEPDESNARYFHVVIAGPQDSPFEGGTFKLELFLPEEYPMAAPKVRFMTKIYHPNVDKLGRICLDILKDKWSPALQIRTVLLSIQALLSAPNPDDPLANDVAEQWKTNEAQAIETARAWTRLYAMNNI

[3] = target: T3, Ubiquitin-conjugating enzyme E2 N; format: functional; remark: listed apart in the source
[4] = target: T4, Alkaline phosphatase, tissue-nonspecific isozyme (Homo sapiens, UniProt P05186); test: TNAP enzyme activators, dose response, selectivity assay for human IAP activator project, biochemical, TNAP isozyme, human IAP uHTS hits (AID 488886); format: functional;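 further: potency of compounds raising TNAP activity as a selectivity check on IAP activators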
T4 sequence (P05186 whole entry): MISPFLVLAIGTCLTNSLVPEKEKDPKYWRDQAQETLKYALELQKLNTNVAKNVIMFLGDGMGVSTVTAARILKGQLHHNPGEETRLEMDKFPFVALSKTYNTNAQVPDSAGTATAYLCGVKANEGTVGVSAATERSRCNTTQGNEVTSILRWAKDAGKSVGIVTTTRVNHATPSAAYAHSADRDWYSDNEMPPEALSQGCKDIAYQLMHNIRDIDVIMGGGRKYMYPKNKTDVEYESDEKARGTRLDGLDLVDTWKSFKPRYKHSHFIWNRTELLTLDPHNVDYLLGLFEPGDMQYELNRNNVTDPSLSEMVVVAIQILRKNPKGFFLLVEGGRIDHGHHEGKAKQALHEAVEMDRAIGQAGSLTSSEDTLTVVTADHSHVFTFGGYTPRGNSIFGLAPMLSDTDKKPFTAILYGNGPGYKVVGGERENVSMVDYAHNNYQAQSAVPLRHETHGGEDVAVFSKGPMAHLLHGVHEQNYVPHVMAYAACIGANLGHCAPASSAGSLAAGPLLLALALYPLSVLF

[5] = target: T5, Intestinal-type alkaline phosphatase (Homo sapiens, UniProt P09923); test: human intestinal alkaline phosphatase activators, dose response, biochemical, luminescence, uHTS hits (AID 463120); format: functional
[6] = target: T5, Intestinal-type alkaline phosphatase; test: human IAP activators, dose response, biochemical, luminescent, uHTS hits, set 2 (AID 488817); format: functional;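 further: potency of activators that raise enzyme activity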
[7] = target: Intestinal-type alkaline phosphatase (Mus musculus, UniProt P24822); test: PubChem AID 488875; format: functional
Trypsin = Trypsin (Sus scrofa, UniProt P00761); test: porcine trypsin inhibitors, dose response, selectivity assay for Rce1 protease inhibitor project, biochemical, quenched peptide fluorescence, cherry-pick (AID 488789)
CAAX prenyl protease 2 = CAAX prenyl protease 2 (Homo sapiens, UniProt Q9Y256); test: human Rce1 protease inhibitors, dose response, biochemical, yeast membranes, quenched-peptide fluorescence, cherry-pick (AID 588849)
Cytochrome P450 2C9 [8] = target: T1, Cytochrome P450 2C9; remark: listed apart in the source
[9] = off-target signal loss in HeLa-CEM21 co-culture – HeLa F-luc CTL cells, cherry-picked, counter-screen for HIV-1 Env fusion inhibitor project, dose response (AID 652040); format: functional, cell-based;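 further: potency for signal decrease marking cytotoxic or nonspecific inhibition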
[10] = inhibitors of HIV Env-driven cell fusion, dose response, cherry-pick (AID 652057); format: functional, cell-based
[11] = inhibitors of clade B AD8 Env fusion, dose response, cell-based, cherry-pick (AID 652062); format: functional;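 further: luciferase signal from cell-cell fusion driven by HIV-1 clade B AD8 Env; potency is for inhibitors of fusion seen as a drop in luminescence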
HEK293 [12] = test: cells; details: Homo sapiens
[13] = ZM109 Env clade C HIV-1 fusion inhibitors, dose response, HeLa effector, CEM target cells, luciferase, cherry-pick (AID 652058); format: functional, cell-based
HEK293 [14] = test: cells; details: Homo sapiens; remark: listed apart in the source
[15] = target: Delta-type opioid receptor (Homo sapiens, UniProt P41143); test: Counterscreen for agonists of heterodimerization of the mu 1 (OPRM1) and delta 1 (OPRD1) opioid receptors: Luminescence-based cell-based high throughput dose response assay to identify agonists of OPRD1 homodimerization. [Related pubchem assays (depositor defined):AID504326, AID504355, AID504692, AID504904, AID504905]; format: functional
[16] = target: 5-hydroxytryptamine receptor 5A (Homo sapiens, UniProt P47898); test: Counterscreen for agonists of OPRM1-OPRD1 heterodimerization: luminescence-based cell-based high throughput dose response assay to identify agonists of 5-hydroxytryptamine (serotonin) 5A receptor (HTR5A). [Related pubchem assays (depositor defined):AID504326, AID504355, AID504692, AID504904, AID504905]; format: functional
[17] = target: T6, Short transient receptor potential channel 4 (Mus musculus, UniProt Q9QUQ5); test: mouse TRPC4 channel activators, dose response, cell-based, HEK293 TRPC4/mu-opioid, Fluo-4 calcium (AID 434937); format: functional
T6 sequence (Q9QUQ5 whole entry): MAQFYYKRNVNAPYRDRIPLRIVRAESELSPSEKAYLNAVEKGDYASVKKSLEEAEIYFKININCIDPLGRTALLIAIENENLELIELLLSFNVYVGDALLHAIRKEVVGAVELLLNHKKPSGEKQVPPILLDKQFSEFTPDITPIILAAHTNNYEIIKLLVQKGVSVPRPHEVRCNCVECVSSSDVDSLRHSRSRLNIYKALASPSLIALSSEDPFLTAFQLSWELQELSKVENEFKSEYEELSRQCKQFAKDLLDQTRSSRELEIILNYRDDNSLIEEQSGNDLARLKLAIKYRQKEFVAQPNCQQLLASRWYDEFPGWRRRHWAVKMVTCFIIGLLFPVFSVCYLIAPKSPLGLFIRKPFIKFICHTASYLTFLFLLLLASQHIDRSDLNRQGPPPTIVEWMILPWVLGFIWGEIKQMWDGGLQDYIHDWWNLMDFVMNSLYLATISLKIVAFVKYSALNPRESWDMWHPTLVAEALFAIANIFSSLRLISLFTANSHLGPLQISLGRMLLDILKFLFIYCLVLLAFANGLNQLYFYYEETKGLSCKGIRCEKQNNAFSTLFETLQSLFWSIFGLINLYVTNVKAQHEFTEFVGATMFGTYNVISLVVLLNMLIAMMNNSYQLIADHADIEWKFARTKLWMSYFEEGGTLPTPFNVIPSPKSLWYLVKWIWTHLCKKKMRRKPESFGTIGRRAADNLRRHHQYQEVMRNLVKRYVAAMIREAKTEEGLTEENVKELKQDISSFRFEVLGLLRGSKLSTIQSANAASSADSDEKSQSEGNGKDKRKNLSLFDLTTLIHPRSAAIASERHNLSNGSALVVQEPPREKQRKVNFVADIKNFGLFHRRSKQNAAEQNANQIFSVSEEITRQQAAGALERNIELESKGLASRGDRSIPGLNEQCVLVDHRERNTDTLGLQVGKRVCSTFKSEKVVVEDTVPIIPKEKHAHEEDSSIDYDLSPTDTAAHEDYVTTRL

Mu-type opioid receptor = Mu-type opioid receptor (Homo sapiens, UniProt P35372); test: Counterscreen for agonists of heterodimerization of the mu 1 (OPRM1) and delta 1 (OPRD1) opioid receptors: Luminescence-based cell-based high throughput dose response assay to identify agonists of OPRM1 homodimerization.; format: functional;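 further: U2OS cells expressing OPRM1 and beta-arrestin as split beta-galactosidase partners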
Mu-type opioid receptor, sequence (P35372 whole entry): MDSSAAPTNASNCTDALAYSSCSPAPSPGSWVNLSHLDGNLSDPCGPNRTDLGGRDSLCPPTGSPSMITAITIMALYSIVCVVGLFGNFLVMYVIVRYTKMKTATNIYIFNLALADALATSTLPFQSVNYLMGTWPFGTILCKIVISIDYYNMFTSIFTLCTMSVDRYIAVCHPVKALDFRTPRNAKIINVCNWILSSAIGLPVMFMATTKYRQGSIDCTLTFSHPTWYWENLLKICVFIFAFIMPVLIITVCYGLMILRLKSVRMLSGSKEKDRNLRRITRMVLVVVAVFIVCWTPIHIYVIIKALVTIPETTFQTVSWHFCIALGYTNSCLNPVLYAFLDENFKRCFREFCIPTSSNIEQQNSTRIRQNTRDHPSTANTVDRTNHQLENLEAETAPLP

T5 sequence (P09923 whole entry): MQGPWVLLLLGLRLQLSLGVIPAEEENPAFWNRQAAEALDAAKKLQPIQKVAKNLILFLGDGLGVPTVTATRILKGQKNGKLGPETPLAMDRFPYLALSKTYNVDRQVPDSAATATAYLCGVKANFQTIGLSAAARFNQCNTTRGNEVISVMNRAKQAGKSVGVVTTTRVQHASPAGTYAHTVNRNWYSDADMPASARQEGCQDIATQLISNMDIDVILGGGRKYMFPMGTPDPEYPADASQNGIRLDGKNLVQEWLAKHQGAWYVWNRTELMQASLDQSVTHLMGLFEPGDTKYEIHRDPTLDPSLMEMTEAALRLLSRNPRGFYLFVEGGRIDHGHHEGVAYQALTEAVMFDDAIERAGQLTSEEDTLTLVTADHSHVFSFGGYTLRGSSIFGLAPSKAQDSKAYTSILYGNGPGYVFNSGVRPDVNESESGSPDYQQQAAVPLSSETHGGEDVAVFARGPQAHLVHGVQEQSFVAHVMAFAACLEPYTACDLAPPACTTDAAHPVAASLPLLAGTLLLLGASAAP
T1 sequence (P11712 whole entry): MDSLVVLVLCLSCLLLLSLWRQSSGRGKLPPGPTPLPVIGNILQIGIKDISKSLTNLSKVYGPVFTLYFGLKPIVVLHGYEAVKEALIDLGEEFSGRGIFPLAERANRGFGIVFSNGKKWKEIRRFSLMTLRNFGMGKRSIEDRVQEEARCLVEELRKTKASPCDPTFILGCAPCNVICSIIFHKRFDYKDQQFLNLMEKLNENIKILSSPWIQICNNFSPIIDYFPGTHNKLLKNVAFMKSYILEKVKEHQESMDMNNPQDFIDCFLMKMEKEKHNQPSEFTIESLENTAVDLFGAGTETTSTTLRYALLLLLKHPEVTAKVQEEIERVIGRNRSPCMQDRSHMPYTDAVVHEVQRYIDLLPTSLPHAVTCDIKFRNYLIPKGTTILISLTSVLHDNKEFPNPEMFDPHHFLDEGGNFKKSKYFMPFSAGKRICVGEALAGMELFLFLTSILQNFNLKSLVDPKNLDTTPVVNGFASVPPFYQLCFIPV
Trypsin, sequence (P00761 whole entry): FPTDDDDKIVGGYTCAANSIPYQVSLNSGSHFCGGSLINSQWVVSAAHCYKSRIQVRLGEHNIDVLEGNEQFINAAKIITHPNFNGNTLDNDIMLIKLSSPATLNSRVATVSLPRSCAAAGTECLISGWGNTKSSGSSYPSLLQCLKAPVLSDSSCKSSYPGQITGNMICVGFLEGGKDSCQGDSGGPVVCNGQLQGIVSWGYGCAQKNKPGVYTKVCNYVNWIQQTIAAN
CAAX prenyl protease 2, sequence (Q9Y256 whole entry): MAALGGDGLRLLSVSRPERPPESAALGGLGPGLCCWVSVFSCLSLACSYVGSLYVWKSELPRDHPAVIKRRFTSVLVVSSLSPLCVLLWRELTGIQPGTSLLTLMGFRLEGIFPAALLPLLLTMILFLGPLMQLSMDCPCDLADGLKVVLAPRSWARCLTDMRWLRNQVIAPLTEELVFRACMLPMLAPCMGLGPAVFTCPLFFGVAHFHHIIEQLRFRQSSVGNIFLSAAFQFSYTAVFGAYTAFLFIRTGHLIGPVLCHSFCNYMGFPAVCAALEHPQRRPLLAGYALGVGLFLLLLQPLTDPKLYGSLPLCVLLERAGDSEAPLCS
Delta-type opioid receptor, sequence (P41143 whole entry): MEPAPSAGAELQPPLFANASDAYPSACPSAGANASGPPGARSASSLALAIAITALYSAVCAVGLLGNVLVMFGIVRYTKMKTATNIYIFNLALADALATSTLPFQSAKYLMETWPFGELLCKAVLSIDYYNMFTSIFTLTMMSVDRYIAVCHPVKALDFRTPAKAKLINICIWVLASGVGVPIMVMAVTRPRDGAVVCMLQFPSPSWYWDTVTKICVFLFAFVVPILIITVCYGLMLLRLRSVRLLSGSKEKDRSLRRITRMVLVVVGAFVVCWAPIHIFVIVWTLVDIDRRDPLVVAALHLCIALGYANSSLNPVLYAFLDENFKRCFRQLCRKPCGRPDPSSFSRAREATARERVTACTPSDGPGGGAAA
Intestinal-type alkaline phosphatase (Mus musculus, UniProt P24822), sequence (P24822 whole entry): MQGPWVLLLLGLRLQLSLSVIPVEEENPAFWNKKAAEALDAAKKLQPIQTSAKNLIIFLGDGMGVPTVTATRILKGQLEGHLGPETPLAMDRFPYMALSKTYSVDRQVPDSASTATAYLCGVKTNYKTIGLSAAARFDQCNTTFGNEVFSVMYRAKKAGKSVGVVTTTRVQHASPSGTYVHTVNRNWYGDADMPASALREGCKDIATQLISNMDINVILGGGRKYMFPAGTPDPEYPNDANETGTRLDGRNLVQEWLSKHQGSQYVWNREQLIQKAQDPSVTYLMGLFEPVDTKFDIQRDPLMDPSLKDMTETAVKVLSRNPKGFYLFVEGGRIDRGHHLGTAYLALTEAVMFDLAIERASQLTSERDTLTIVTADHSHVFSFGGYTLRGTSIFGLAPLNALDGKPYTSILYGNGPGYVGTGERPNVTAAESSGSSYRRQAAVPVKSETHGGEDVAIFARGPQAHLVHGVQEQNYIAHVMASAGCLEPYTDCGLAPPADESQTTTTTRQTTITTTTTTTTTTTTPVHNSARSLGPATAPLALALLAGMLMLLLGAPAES
5-hydroxytryptamine receptor 5A, sequence (P47898 whole entry): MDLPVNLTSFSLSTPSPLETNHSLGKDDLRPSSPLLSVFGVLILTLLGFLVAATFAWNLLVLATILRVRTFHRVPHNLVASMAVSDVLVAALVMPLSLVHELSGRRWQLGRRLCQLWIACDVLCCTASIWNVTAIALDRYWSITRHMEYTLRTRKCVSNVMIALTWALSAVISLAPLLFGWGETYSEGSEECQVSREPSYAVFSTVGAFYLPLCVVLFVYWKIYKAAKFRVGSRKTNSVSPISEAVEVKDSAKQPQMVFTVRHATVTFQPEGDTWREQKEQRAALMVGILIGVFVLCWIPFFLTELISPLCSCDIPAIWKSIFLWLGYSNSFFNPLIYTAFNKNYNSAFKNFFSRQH
Cytochrome P450 3A4, sequence (P08684 whole entry): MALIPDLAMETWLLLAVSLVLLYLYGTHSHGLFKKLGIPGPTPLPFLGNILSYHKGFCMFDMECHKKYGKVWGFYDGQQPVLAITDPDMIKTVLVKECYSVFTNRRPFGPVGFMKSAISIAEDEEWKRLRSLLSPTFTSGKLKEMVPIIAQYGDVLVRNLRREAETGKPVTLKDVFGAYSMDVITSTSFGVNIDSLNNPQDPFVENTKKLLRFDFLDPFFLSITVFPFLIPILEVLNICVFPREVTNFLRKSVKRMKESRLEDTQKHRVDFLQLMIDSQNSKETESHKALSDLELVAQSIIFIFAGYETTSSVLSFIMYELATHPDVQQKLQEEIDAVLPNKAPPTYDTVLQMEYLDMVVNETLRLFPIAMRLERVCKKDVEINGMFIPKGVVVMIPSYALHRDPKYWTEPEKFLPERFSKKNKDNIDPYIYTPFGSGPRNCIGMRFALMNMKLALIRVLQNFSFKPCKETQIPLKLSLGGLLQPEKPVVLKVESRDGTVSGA

SMILES: CCCCn1c(=O)c(C(=O)Nc2ccccc2S(N)(=O)=O)c(O)c2ccccc21
IC50 (Bcl-2-related protein A1): 2.02 µM (active) | IC50 [2]: > 20 µM (inactive) | IC50 [3]: 15.5 µM (active)

SMILES: COc1ccccc1CN1CCC(n2nccc2NC(=O)CCCc2ccccc2)CC1
EC50 [4]: 75.8 µM (active) | EC50 [5]: 74 µM (active) | EC50 [6]: 60.4 µM (active) | EC50 [7]: 51.3 µM (active)

SMILES: CCCNC(=O)c1ccccc1NC(=O)c1ccccc1N(C)S(=O)(=O)c1ccccc1
AC50 [9]: 3.2 µM (active) | AC50 [10]: 1.83 µM (active) | AC50 [11]: 8.47 µM (active) | EC50 (HEK293 [12]): > 59.6 µM (inactive) | AC50 [13]: 3.19 µM (active) | EC50 (HEK293 [14]): > 59.6 µM (inactive)

Other lines, results leading:

AC50 (Cytochrome P450 2C9 [1]): 25.1 µM (inconclusive) | AC50 (Cytochrome P450 3A4): inconclusive
SMILES: O=C(c1ccco1)N1CCC2(CC1)CN(C(c1ccccc1)c1ccccc1)C2

AC50 (Trypsin): 1.72 µM (active) | AC50 (CAAX prenyl protease 2): 17.7 µM (active) | AC50 (Cytochrome P450 2C9 [8]): inconclusive
SMILES: O=C1CCCN1CC(O)CS(=O)(=O)c1ccccc1 (configuration not stated)

EC50 [15]: 1.07 µM (active) | EC50 [16]: > 92.4 µM (inactive) | EC50 [17]: 0.0173 µM (active) | EC50 (Mu-type opioid receptor): 4.67 µM (active)
SMILES: CN(C)C(CNC(=O)c1cnc(Cl)c(Cl)c1)c1ccccc1 (configuration not stated)
